Tests used:
Experiment in all cases: Example B2 herbicidal action, post-emergence, pots in glasshouse, damage score 0-10
Type in all cases: in vivo
Conditions in all cases: application post-emergence, rate 1000 g/ha, evaluated after 13 days
Amaranthus retroflexus = test system: Amaranthus retroflexus
Procedure, shortened: (§1)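 Seedlings grown 8 days in a controlled glasshouse received a foliar spray of the compound formulated in 50:50 acetone/water plus 0.5% Tween 20; plant damage was assessed 13 days afterward.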

Ipomea hederaceae = test system: Ipomea hederaceae
Procedure, shortened: as §1

Setaria faberi = test system: Setaria faberi
Procedure, shortened: as §1

Solanum nigrum = test system: Solanum nigrum
Procedure, shortened: as §1

Echinochloa crus-galli = test system: Echinochloa crus-galli
Procedure, shortened: as §1

Row | Structure (SMILES) | AMARE damage score (10=total damage to plant; 0=no damage to plant) (Amaranthus retroflexus) | IPOHE damage score (10=total damage to plant; 0=no damage to plant) (Ipomea hederaceae) | SETFA damage score (10=total damage to plant; 0=no damage to plant) (Setaria faberi) | SOLNI damage score (10=total damage to plant; 0=no damage to plant) (Solanum nigrum) | ECHCG damage score (10=total damage to plant; 0=no damage to plant) (Echinochloa crus-galli)
1 | O=S1(=O)C(c2ccccc2Br)=C(O)c2nccnc2N1CC(F)F [Compound D18] | 10 | 10 | 5 | 10 | 4
2 | CCSC(=O)OC1=C(c2c(Cl)ccc(Cl)c2Cl)S(=O)(=O)N(CC(F)F)c2nccnc21 [Compound C37] | 8 | 9 | 6 | 9 | 8
3 | CCN1c2nccnc2C(O)=C(c2cc(F)c(Cl)cc2Cl)S1(=O)=O [Compound D23] | 8 | 9 | 2 | 8 | 2
4 | C=C(C)CN1c2nccnc2C(OC(=O)C(C)(C)C)=C(c2cccc(Cl)c2Cl)S1(=O)=O [Compound C140] | 0 | 2 | 0 | 2 | 0
5 | CCSC(=O)OC1=C(c2c(Cl)ccc(Cl)c2Cl)S(=O)(=O)N(C)c2nccnc21 [Compound C94] | 6 | 9 | 2 | 9 | 6
6 | CCN1c2nccnc2C(O)=C(c2cc(C(F)(F)F)ccc2Br)S1(=O)=O [Compound D35] | 8 | 10 | 4 | 9 | 1
7 | O=S1(=O)C(c2ccc(Cl)cc2Cl)=C(O)c2nccnc2N1CC(F)(F)F [Compound D51] | 7 | 7 | 1 | 8 | 2
8 | O=C(OC1=C(c2c(Cl)cccc2C(F)(F)F)S(=O)(=O)N(CC(F)F)c2nccnc21)Sc1ccccc1 [Compound C125] | 9 | 8 | 8 | 9 | 8
9 | CCSC(=O)OC1=C(c2cc(Cl)ccc2C(F)(F)F)S(=O)(=O)N(CC(F)F)c2nccnc21 [Compound C112] | 10 | 9 | 6 | 10 | 6
10 | CCN1c2nccnc2C(O)=C(c2c(F)cccc2C(F)(F)F)S1(=O)=O [Compound D21] | 8 | 9 | 6 | 9 | 6
11 | O=S1(=O)C(c2c(F)cccc2C(F)(F)F)=C(O)c2nccnc2N1CC(F)F [Compound D39] | 10 | 10 | 9 | 9 | 9
12 | O=S1(=O)C(c2ccccc2C(F)(F)F)=C(O)c2nccnc2N1CC(F)F [Compound D31] | 10 | 10 | 9 | 10 | 9
13 | CCN1c2nccnc2C(OC(=O)C(C)C)=C(c2cc(C(F)(F)F)ccc2Br)S1(=O)=O [Compound C70] | 7 | 10 | 1 | 8 | 7
14 | CC(C)C(=O)OC1=C(c2c(Cl)ccc(Cl)c2C(F)(F)F)S(=O)(=O)N(CC(F)F)c2nccnc21 [Compound C53] | 8 | 4 | 5 | 5 | 8
15 | CCN1c2nccnc2C(OC(=O)C(C)(C)C)=C(c2cc(C(F)(F)F)ccc2Br)S1(=O)=O [Compound C69] | 4 | 7 | 0 | 6 | 2
16 | CC(C)C(=O)OC1=C(c2cc(C(F)(F)F)ccc2Cl)S(=O)(=O)N(C=CCl)c2nccnc21 (mixture of isomers) [Compound C114] | 4 | 6 | 2 | 10 | 0
17 | C#CCN1c2nccnc2C(O)=C(c2c(Cl)ccc(Cl)c2C(F)(F)F)S1(=O)=O [Compound D45] | 8 | 8 | 6 | 9 | 6
18 | CCN1c2nccnc2C(OC(=O)C(C)(C)C)=C(c2c(F)ccc(OC)c2Cl)S1(=O)=O [Compound C24] | 2 | 9 | 0 | 9 | 4
19 | CC(C)(C)C(=O)OC1=C(c2cc(I)ccc2Cl)S(=O)(=O)N(CC(F)F)c2nccnc21 [Compound C55] | 7 | 8 | 2 | 7 | 2
20 | CCOC(=O)OC1=C(c2cc(Cl)ccc2C(F)(F)F)S(=O)(=O)N(CC(F)F)c2nccnc21 [Compound C120] | 9 | 10 | 9 | 9 | 8
21 | CCSC(=O)OC1=C(c2cccc(Cl)c2Cl)S(=O)(=O)N(CC)c2nccnc21 [Compound C99] | 3 | 3 | 1 | 8 | 2
22 | CC(C)(C)C(=O)OC1=C(c2cc(C(F)(F)F)ccc2Br)S(=O)(=O)N(CC(F)F)c2nccnc21 [Compound C80] | 10 | 10 | 0 | 10 | 6
